Laboratory results taken from patent US10174016B2 (BAYER AKTIENGESELLSCHAFT, priority 2014, dated 2019).
Read-outs that look alike come from different tables or passages of the source.

Columns and labels:
human P2X2/3 receptor = human P2X2/3 receptor (Homo sapiens (Human), UniProt P56373+Q9UBL9); test: Intracellular calcium measurement (FLIPR, Fluo-4) of antagonist activity at human P2X2/3 receptors; type: cell-based
Protocol: (§1) Intracellular Calcium Measurement to Assess Antagonist Activity at Human P2X3 and Human P2X2/3 Receptors
(§2) A fluorescent imaging plate reader (FLEX/FLIPR station; Molecular Devices) was used to monitor intracellular calcium levels using the calcium-chelating dye Fluo-4 (Molecular Probes). […] Cells expressing purinergic receptors P2X3 (human) or P2X2/3 (human) were plated at a density of 15,000 cells/well in collagen-coated 384-well plates approximately 20 hours before beginning the assay. […] The test compound was added in a volume of 5 μl and allowed to incubate for 30 min at 37° C. The final assay DMSO concentration is 1%. The agonist, α,β-Me-ATP, was added in a volume of 20 μl at a concentration representing the EC80 value. The fluorescence was measured for an interval of 90 sec at 2 sec intervals and analyzed based on the increase in peak relative fluorescence units (RFU) compared to the basal fluorescence. Peak fluorescence was used to determine the response to agonist obtained at each concentration of test compound by the following equation: % Response=100*(RFU(test compound)−RFU(control)/RFU(DMSO)−RFU(control))
(§3) The Examples were tested in triplicates per plate and mean values were plotted in Excel XLFit to determine IC50 values at the human P2X3 and human P2X2/3 receptors, percentage of maximal inhibition and the Hill coefficients.

human P2X3 receptor = human P2X3 receptor (Homo sapiens (Human), UniProt P56373); test: Intracellular calcium measurement (FLIPR, Fluo-4) of antagonist activity at human P2X3 receptors; type: cell-based; details: read-out: hP2X3 IC50
Sequence of human P2X3 receptor (P56373 whole entry): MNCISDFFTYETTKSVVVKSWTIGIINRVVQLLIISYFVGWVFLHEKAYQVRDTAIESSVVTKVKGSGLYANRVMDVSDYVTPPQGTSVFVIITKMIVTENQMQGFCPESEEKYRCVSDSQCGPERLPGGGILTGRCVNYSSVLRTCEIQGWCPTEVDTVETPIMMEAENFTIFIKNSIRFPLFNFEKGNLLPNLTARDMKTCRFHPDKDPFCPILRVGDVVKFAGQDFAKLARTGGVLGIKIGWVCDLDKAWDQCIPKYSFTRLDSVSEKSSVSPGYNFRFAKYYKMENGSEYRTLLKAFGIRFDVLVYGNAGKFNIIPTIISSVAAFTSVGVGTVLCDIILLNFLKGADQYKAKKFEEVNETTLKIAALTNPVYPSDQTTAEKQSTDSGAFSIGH
Protocol: as §1, §2, §3

[1] = human P2X2/3, FLIPR calcium assay, agonist α,β-Me-ATP, read-out: hP2X2/3 IC50
[2] = human P2X3, FLIPR calcium assay, agonist α,β-Me-ATP

Sequence of human P2X2/3 receptor (P56373 whole entry): as above
Sequence of human P2X2/3 receptor (Q9UBL9 whole entry): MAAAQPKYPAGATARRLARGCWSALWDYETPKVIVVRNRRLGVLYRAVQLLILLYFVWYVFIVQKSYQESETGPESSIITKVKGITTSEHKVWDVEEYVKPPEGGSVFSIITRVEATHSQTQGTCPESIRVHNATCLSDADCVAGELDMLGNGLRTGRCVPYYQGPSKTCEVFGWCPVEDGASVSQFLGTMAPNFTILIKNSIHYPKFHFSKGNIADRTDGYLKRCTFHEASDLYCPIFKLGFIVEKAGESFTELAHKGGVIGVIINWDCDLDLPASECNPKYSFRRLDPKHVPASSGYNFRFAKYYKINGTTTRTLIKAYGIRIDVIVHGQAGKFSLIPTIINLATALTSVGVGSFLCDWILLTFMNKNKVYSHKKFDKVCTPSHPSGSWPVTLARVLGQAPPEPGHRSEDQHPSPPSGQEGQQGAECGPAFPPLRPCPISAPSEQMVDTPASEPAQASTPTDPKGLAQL

| Compound | IC50 (human P2X2/3 receptor; [1]) [nM] | IC50 (human P2X3 receptor; [2]) [nM] | IC50 (human P2X2/3 receptor; hP2X2/3 IC50 (nM)) [nM] | IC50 (human P2X3 receptor) [nM] |
| --- | --- | --- | --- | --- |
| CCc1cnc(-c2cc(O[C@@H]3CN4CCC3CC4)cc(C(=O)N[C@H](C)c3cnc(C(F)(F)F)nc3)c2)s1 [Example 173, 3-[(3S)-1-azabicyclo[2.2.2]oct-3-yloxy]-5-(5-ethyl-1,3-thiazol-2-yl)-N-{(1R)-1-[2-(trifluoromethyl)pyrimidin-5-yl]ethyl}benzamide] | – | – | 311 | 5 |
| CCc1cnc(-c2cc(OC[C@@H]3CN(C)CCO3)cc(C(=O)N[C@H](C)c3ccc(C(F)(F)F)nn3)c2)s1 [Example 418, 3-(5-Ethyl-1,3-thiazol-2-yl)-5-{[(2S)-4-methylmorpholin-2-yl]methoxy}-N-{(1R)-1-[6-(trifluoromethyl)pyridazin-3-yl]ethyl}benzamide] | 1560 | 23 | – | – |
| Cc1cnc(-c2cc(O[C@@H]3CCCN(C(=O)OC(C)(C)C)C3)cc(C(=O)N[C@H](C)c3cnc(C(F)(F)F)nc3)c2)s1 [Example 190, tert-Butyl (3R)-3-[3-(5-methyl-1,3-thiazol-2-yl)-5-({(1R)-1-[2-(trifluoromethyl)pyrimidin-5-yl]ethyl}carbamoyl)phenoxy]piperidine-1-carboxylate] | 207 | 7 | – | – |
| Cc1ccc([C@@H](C)NC(=O)c2cc(O[C@@H]3CCOC3)cc(-c3ncc(C)s3)c2)nn1 [Example 18, N-[(1R)-1-(6-methylpyridazin-3-yl)ethyl]-3-(5-methyl-1,3-thiazol-2-yl)-5-[(3R)-tetrahydrofuran-3-yloxy]benzamide] | 427 | 34 | – | – |
| Cc1cnc(-c2cc(OCC3(F)CN(C)C3)cc(C(=O)N[C@H](C)c3ccc(C(F)(F)F)nc3)c2)s1 [Example 386, 3-[(3-fluoro-1-methylazetidin-3-yl)methoxy]-5-(5-methyl-1,3-thiazol-2-yl)-N-{(1R)-1-[6-(trifluoromethyl)pyridin-3-yl]ethyl}benzamide] | 811 | 24 | – | – |
| Cc1cnc(-c2cc(OC3CCN(C(C)C)CC3)cc(C(=O)N[C@H](C)c3ccc(C(F)(F)F)nn3)c2)s1 [Example 224, 3-(5-Methyl-1,3-thiazol-2-yl)-5-{[1-(propan-2-yl)piperidin-4-yl]oxy}-N-{(1R)-1-[6-(trifluoromethyl)pyridazin-3-yl]ethyl}benzamide] | 569 | 9 | – | – |
| Cc1ccc(CNC(=O)c2cc(OCC3CCOCC3)cc(-c3ncc(C(F)(F)F)s3)c2)nn1 [Example 118, N-[(6-Methylpyridazin-3-yl)methyl]-3-(tetrahydro-2H-pyran-4-ylmethoxy)-5-[5-(trifluoromethyl)-1,3-thiazol-2-yl]benzamide] | 1130 | 198 | – | – |
| Cc1cnc(-c2cc(OC[C@@H]3CN(C)CCO3)cc(C(=O)N[C@@H](C)c3cnc(C(F)(F)F)nc3)c2)s1 [Example 417, 3-{[(2S)-4-methylmorpholin-2-yl]methoxy}-5-(5-methyl-1,3-thiazol-2-yl)-N-{(1S)-1-[2-(trifluoromethyl)pyrimidin-5-yl]ethyl}benzamide] | ≥ 10000 | – | – | 434 |
| CCc1cnc(-c2cc(OC3COC3)cc(C(=O)N[C@H](C)c3cnc(C(F)(F)F)nc3)c2)s1 [Example 169, 3-(5-ethyl-1,3-thiazol-2-yl)-5-(oxetan-3-yloxy)-N-{(1R)-1-[2-(trifluoromethyl)pyrimidin-5-yl]ethyl}benzamide] | 70 | 9 | – | – |

The remaining molecules from weak to strong by IC50 (human P2X2/3 receptor; [1]), led by results:

| IC50 (human P2X2/3 receptor; [1]) [nM] | IC50 (human P2X3 receptor; [2]) [nM] | Compound | IC50 (human P2X2/3 receptor; hP2X2/3 IC50 (nM)) [nM] | IC50 (human P2X3 receptor) [nM] |
| --- | --- | --- | --- | --- |
| 1800 | 17 | Cc1cnc(-c2cc(OC[C@H]3CN(C)C(=O)O3)cc(C(=O)N[C@H](C)c3cnc(C(F)(F)F)nc3)c2)s1 [Example 398, 3-{[(5R)-3-methyl-2-oxo-1,3-oxazolidin-5-yl]methoxy}-5-(5-methyl-1,3-thiazol-2-yl)-N-{(1R)-1-[2-(trifluoromethyl)pyrimidin-5-yl]ethyl}benzamide] | – | – |
| 1170 | 106 | Cc1ccc(CNC(=O)c2cc(OC[C@H]3CCOC3)cc(-c3ncc(C4CCC4)s3)c2)nn1 [Example 122, 3-(5-Cyclobutyl-1,3-thiazol-2-yl)-N-[(6-methylpyridazin-3-yl)methyl]-5-[(3S)-tetrahydrofuran-3-ylmethoxy]benzamide] | – | – |
| 506 | 13 | C[C@@H](NC(=O)c1cc(OC[C@H]2CN(C)CCO2)cc(-c2ncc(Cl)s2)c1)c1cnc(C(F)(F)F)nc1 [Example 367, 3-(5-chloro-1,3-thiazol-2-yl)-5-{[(2R)-4-methylmorpholin-2-yl]methoxy}-N-{(1R)-1-[2-(trifluoromethyl)pyrimidin-5-yl]ethyl}benzamide] | – | – |
| 185 | 11 | CCc1cnc(-c2cc(OC[C@@H]3CN(C)CCO3)cc(C(=O)N[C@H](C)c3cnc(C(F)(F)F)nc3)c2)s1 [Example 375, 3-(5-ethyl-1,3-thiazol-2-yl)-5-{[(2S)-4-methylmorpholin-2-yl]methoxy}-N-{(1R)-1-[2-(trifluoromethyl)pyrimidin-5-yl]ethyl}benzamide] | – | – |
| 145 | 6 | CCc1cnc(-c2cc(OC[C@@H]3CCCO3)cc(C(=O)N[C@H](C)c3ccc(C(F)(F)F)nn3)c2)s1 [Example 302, 3-(5-ethyl-1,3-thiazol-2-yl)-5-[(2S)-tetrahydrofuran-2-ylmethoxy]-N-{(1R)-1-[6-(trifluoromethyl)pyridazin-3-yl]ethyl}benzamide] | – | – |
| 144 | 12 | COc1ccc([C@@H](C)NC(=O)c2cc(OC3CCOCC3)cc(-c3ncc(C)s3)c2)cn1 [Example 86, N-[(1R)-1-(6-Methoxypyridin-3-yl)ethyl]-3-(5-methyl-1,3-thiazol-2-yl)-5-(tetrahydro-2H-pyran-4-yloxy)benzamide] | – | – |
| 118 | 4 | Cc1cnc(-c2cc(OC[C@H]3CCCO3)cc(C(=O)N[C@H](C)c3cnc(C(F)(F)F)nc3)c2)s1 [Example 63, 3-(5-Methyl-1,3-thiazol-2-yl)-5-[(2R)-tetrahydrofuran-2-ylmethoxy]-N-{(1R)-1-[2-(trifluoromethyl)pyrimidin-5-yl]ethyl}benzamide] | – | – |
| 87 | 5 | Cc1cnc(-c2cc(OC3CCNC(C(F)(F)F)C3)cc(C(=O)N[C@H](C)c3cnc(C(F)(F)F)nc3)c2)s1 (single isomer, unassigned) [Example 207] | – | – |
| 70 | 18 | CCc1cnc(-c2cc(OC3CCOCC3)cc(C(=O)NCc3ccc(C)nn3)c2)s1 [Example 235, 3-(5-ethyl-1,3-thiazol-2-yl)-N-[(6-methylpyridazin-3-yl)methyl]-5-(tetrahydro-2H-pyran-4-yloxy)benzamide] | – | – |
| 57 | 11 | CCc1cnc(-c2cc(O[C@H]3CCOC3)cc(C(=O)N[C@H](C)c3ccc(C)nn3)c2)s1 [Example 249, 3-(5-ethyl-1,3-thiazol-2-yl)-N-[(1R)-1-(6-methylpyridazin-3-yl)ethyl]-5-[(3S)-tetrahydrofuran-3-yloxy]benzamide] | – | – |
| 35 | 12 | CCc1cnc(-c2cc(O[C@@H]3CCOC3)cc(C(=O)N[C@H](C)c3ccc(C)nn3)c2)s1 [Example 240, 3-(5-ethyl-1,3-thiazol-2-yl)-N-[(1R)-1-(6-methylpyridazin-3-yl)ethyl]-5-[(3R)-tetrahydrofuran-3-yloxy]benzamide] | – | – |
| 22 | 2 | CCc1cnc(-c2cc(O[C@@H]3CCOC3)cc(C(=O)N[C@H](C)c3cnc(C(F)(F)F)nc3)c2)s1 [Example 242, 3-(5-ethyl-1,3-thiazol-2-yl)-5-[(3R)-tetrahydrofuran-3-yloxy]-N-{(1R)-1-[2-(trifluoromethyl)pyrimidin-5-yl]ethyl}benzamide] | – | – |
